Experimental data reported in patent US11267794B2, “Benzothia(di)azepine compounds and their use as bile acid modulators” (Albireo AB, priority 2019, dated 2022).

How the values were obtained:
hLBAT = biological target: T1, hLBAT (Homo sapiens, UniProt Q14973); assay: LBAT (h/m) assay, 3H-taurocholic acid uptake in human LBAT-overexpressing cells; type: cell-based; details: 0.3 μM 3H-taurocholic acid and 7.5 μM cold taurocholic acid, 20 minutes
T1 construct: expressed in transfected cells; kept under Geneticin selection
T1 sequence (Q14973 1-349): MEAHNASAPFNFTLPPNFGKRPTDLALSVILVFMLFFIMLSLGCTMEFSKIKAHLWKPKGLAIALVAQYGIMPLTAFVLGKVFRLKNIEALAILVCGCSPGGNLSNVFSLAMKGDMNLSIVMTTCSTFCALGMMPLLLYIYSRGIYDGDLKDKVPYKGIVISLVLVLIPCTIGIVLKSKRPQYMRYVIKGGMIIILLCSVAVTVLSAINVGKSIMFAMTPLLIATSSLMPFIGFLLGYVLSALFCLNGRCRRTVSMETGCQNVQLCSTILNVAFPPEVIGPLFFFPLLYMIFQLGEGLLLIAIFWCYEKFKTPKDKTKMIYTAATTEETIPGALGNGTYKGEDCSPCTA
Description: 20,000 cells (Human or Mouse LBAT-overexpressing cells) were seeded in 96-wells plate (Corning CLS3809) in 100 μL MEM-alpha medium (Gibco 12571-063) supplemented with 10% FBS (Gibco 10438026) containing Geneticin (Gibco 10131-027) (1 mg/mL) and incubated at 37° C. in 5% CO2 for 24 hours. After incubation, media was decanted from the wells and cells were washed two times with 300 μL of basal MEM-alpha medium (FBS-free). After decanting basal MEM-alpha medium each time, plates were tapped against paper towel to ensure maximum removal of residual media. For human LBAT, incubation mix was prepared by adding test inhibitor dilutions (3-fold serial dilution in DMSO (Sigma D2650), 10 points) in MEM-alpha (without FBS) containing 0.3 μM 3H-taurocholic acid (ARC ART-1368) and 7.5 μM cold taurocholic acid (Sigma T4009) (maintaining 0.2% final DMSO concentration). For mouse LBAT, incubation mix was prepared by adding test inhibitor dilutions (3-fold serial dilution in DMSO, 10 points) in MEM-alpha (without FBS) containing 0.3 μM 3H-taurocholic acid and 25 μM cold taurocholic acid maintaining 0.2% final DMSO concentration). 50 μL of incubation mix containing test inhibitors was then added to the wells (in duplicate) and the plates were incubated for 20 minutes in a CO2 incubator at 37° C. After incubation, the reaction was stopped by keeping the plates on ice water mix for 2-3 minutes and then the incubation mix was aspirated completely from the wells. The wells were washed two times with 250 μL of chilled unlabelled 1 mM taurocholic acid dissolved in HEPES (Gibco 15630080)-buffered (10 mM) HBSS (Gibco 14175079) (pH 7.4). The plates were tapped against a paper towel after every wash to ensure maximum removal of blocking buffer.
100 μL of MicroScint-20 (PerkinElmer 6013621) was added to the wells and kept overnight at room temperature before reading the plates in TopCount NXT™ Microplate Scintillation and Luminescence Counter from PerkinElmer under 3H Test protocol (set at 120 seconds reading time per well, with normal plate orientation).
(§1) All test compounds were provided in powder form at room temperature. 10 mM DMSO stocks of the test compounds were prepared, aliquoted and stored at −20° C. From the 10 mM DMSO stock of the compounds, a 3-fold serial dilution in DMSO was prepared to get a total of 10 dilutions of the test compounds. 0.5 μL of this dilution in DMSO was added to 250 μL of FBS-free basal media containing 3H-taurocholic acid and cold taurocholic acid to prepare the incubation mixture.

hIBAT = biological target: T2, hIBAT (Homo sapiens, UniProt Q12908); assay: IBAT (h/m) assay, 3H-taurocholic acid uptake in human IBAT-overexpressing cells; type: cell-based; details: 0.25 μM 3H-taurocholic acid and 5 μM cold taurocholic acid, 20 minutes
T2 construct: expressed in transfected cells; kept under Puromycin selection
T2 sequence (Q12908 1-348): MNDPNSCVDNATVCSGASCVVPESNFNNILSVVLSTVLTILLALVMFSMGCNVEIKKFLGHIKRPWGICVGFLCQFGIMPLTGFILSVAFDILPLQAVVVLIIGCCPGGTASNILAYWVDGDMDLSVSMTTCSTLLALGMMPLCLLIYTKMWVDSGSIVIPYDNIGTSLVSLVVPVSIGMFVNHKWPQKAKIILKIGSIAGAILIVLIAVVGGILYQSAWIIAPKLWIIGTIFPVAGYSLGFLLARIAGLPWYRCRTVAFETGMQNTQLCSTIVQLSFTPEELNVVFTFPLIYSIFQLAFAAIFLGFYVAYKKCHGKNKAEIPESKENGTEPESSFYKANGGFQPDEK
Description: 10,000 cells (Human or Mouse IBAT-overexpressing cells) were seeded in 96-wells plate (Corning CLS3809) in 200 μL MEM-alpha medium (Gibco 12571-063) supplemented with 10% FBS (Gibco 10438026) containing Puromycin (Gibco A1113803) (10 μg/mL) and incubated at 37° C. in 5% CO2 for 48 hours. After incubation, media was decanted from the wells and cells were washed two times with 300 μL of basal MEM-alpha medium (FBS-free). After decanting basal MEM-alpha medium each time, plates were tapped against paper towel to ensure maximum removal of residual media. Test inhibitor dilutions (highest test concentration being 10 μM, 3-fold serial dilution, 10 points) prepared in DMSO (Sigma D2650) were added in incubation mix (maintaining 0.2% final DMSO concentration) containing 0.25 μM 3H-taurocholic acid (ARC ART-1368) and 5 μM of cold taurocholic acid (Sigma T4009). 50 μL of incubation mix containing test inhibitors was then added to the wells (in duplicate) and the plates were incubated for 20 minutes in a CO2 incubator at 37° C. After incubation, the reaction was stopped by keeping the plates on ice water mix for 2-3 minutes and then the incubation mix was aspirated completely from the wells. The wells were washed two times with 250 μL of chilled unlabelled 1 mM taurocholic acid dissolved in HEPES (Gibco 15630080)-buffered (10 mM) HBSS (Gibco 14175079) (pH 7.4). The plates were tapped against a paper towel after every wash to ensure maximum removal of blocking buffer.
100 μL of MicroScint-20 (PerkinElmer 6013621) was added to the wells and kept overnight at room temperature before reading the plates in TopCount NXT™ Microplate Scintillation and Luminescence Counter from PerkinElmer under 3H Test protocol (set at 120 seconds reading time per well).
as §1

[1] = Bidirectional permeability assay (Caco-2 cells); details: human, Caco-2
Description: Caco-2 cells (Evotec) were seeded at a density of 70,000 cells/well in Millicell® 24-well cell culture insert plates and maintained in an incubator (37° C., 5% CO2, 95% RH) for 21 days with media change on alternate days.
Stock solutions (10 mM) of the test compounds, atenolol (low permeability marker), propranolol (high permeability marker) and digoxin (substrate for P-gp transport pathway) were prepared in dimethylsulfoxide (DMSO). An intermediate stock solution (1 mM) was prepared by diluting 10 μL of 10 mM master stock solution with 90 μL of neat DMSO. A working stock solution (10 μM) was prepared by diluting 50 μL of 1 mM with 4950 μL of FaSSIF buffer. Post addition of compounds to the FaSSIF, samples were subjected to sonication for 2 hours, and centrifuged at 4000 RPM for 30 minutes at 37° C. The 4 mL of resultant supernatant was directly used in the assay. The final DMSO concentration in the transport experiments was 1%.
On the day of assay, Caco-2 monolayers were washed twice with transport buffer (HBSS, pH 7.4) and pre-incubated for 30 min (37° C., 5% CO2, 95% RH) in an incubator. The electrical resistance of the monolayers was measured with a Millicell®—ERS system. Monolayers with trans-epithelial electrical resistance (TEER) values greater than 350 ohm·cm^2 were selected for the assay.
The assay was conducted in absorptive direction (A2B) and secretory (B2A) directions. Transport experiments were initiated by addition of transport assay buffer (FaSSIF buffer prepared in HBSS) consisting of compounds to the donor compartment (apical chamber A-B; basolateral chamber B-A) in duplicate (n=2) wells. Drug free HBSS buffer (pH 7.4) containing 1% bovine serum albumin (BSA) was introduced to the receiver (A-B-basolateral; B-A-Apical) compartments. The volumes of apical and basolateral compartments were 0.4 and 0.8 mL, respectively. After adding dosing solution, plates were incubated in an incubator for 120 minutes at 37° C. After 120 minutes, donor and receiver samples were collected and matrix matched (1:1, 30 μL study sample+30 μL blank buffer) with the opposite buffer. Dosing samples matrix matched (1:1, 30 μL study sample+30 μL blank buffer) with the opposite buffer. Samples were processed by adding acetonitrile containing internal standard (60 μL study sample+200 μL acetonitrile containing internal standard—Tolbutamide, 500 ng/mL). Samples were vortexed and centrifuged at 4000 rpm for 10 minutes. The obtained supernatant (100 μL) was diluted with 100 μL of water and transferred to fresh 96 well plates. The concentration of compounds in the samples was analyzed by liquid chromatography tandem mass spectrometry (LC-MS/MS) method using discovery grade bio-analytical method, as applicable.
The mean apparent permeability (Papp, ×10^−6 cm/sec) of the test compounds, atenolol, propranolol and digoxin were calculated as follows:

Compound	IC50 (hLBAT) [nM]	IC50 (hIBAT) [nM]	Papp A→B at 120 min, 10 µM [1] [×10⁻⁶ cm/s]	Papp B→A at 120 min, 10 µM [1] [×10⁻⁶ cm/s]
CCCCC1(CC)CN(c2ccccc2)c2cc(N(C)C)c(O/C=C(\F)C(=O)O)cc2S(=O)(=O)N1 (stereo not drawn) [Example 2, (Z)-3-((3-butyl-7-(dimethylamino)-3-ethyl-1,1-dioxido-5-phenyl-2,3,4,5-tetrahydro-1,2,5-benzothiadiazepin-8-yl)oxy)-2-fluoroacrylic acid]	124	13	1.4	2.4
(S)-(E)-3-((3-butyl-3-ethyl-5-(4-fluorophenyl)-7-(methylthio)-1,1-dioxido-2,3,4,5-tetrahydro-1,5-benzothiazepin-8-yl)oxy)acrylic acid and (R)-(E)-3-((3-butyl-3-ethyl-5-(4-fluorophenyl)-7-(methylthio)-1,1-dioxido-2,3,4,5 tetrahydro-1,5-benzothiazepin-8-yl)oxy)acrylic acid [Example 9]	150	151		
CCC[C@@]1(CC)CN(c2ccccc2)c2cc(SC)c(O/C=C(\F)C(=O)O)cc2S(=O)(=O)C1.CCC[C@]1(CC)CN(c2ccccc2)c2cc(SC)c(O/C=C(\F)C(=O)O)cc2S(=O)(=O)C1 (mixture of isomers) [Example 18, (S)—(Z)-3-((3-ethyl-7-(methylthio)-1,1-dioxido-5-phenyl-3-propyl-2,3,4,5-tetrahydro-1,5-benzothiazepin-8-yl)oxy)-2-fluoroacrylic acid and (R)—(Z)-3-((3-ethyl-7-(methylthio)-1,1-dioxido-5-phenyl-3-propyl-2,3,4,5-tetrahydro-1,5-benzothiazepin-8-yl)oxy)-2-fluoroacrylic acid]	38	337		
CCCC[C@@]1(CC)CN(c2ccccc2)c2cc(N(C)C)c(O/C=C/C(=O)O)cc2S(=O)(=O)N1.CCCC[C@]1(CC)CN(c2ccccc2)c2cc(N(C)C)c(O/C=C/C(=O)O)cc2S(=O)(=O)N1 (mixture of isomers) [Example 15, (S)-(E)-3-((3-butyl-7-(dimethylamino)-3-ethyl-1,1-dioxido-5-phenyl-2,3,4,5-tetrahydro-1,2,5-benzothiadiazepin-8-yl)oxy)acrylic acid and (R)-(E)-3-((3-butyl-7-(dimethylamino)-3-ethyl-1,1-dioxido-5-phenyl-2,3,4,5-tetrahydro-1,2,5-benzothiadiazepin-8-yl)oxy)acrylic acid]		66		
CCC[C@@]1(CC)CN(c2ccccc2)c2cc(SC)c(O/C=C(\F)C(=O)O)cc2S(=O)(=O)C1.CCC[C@]1(CC)CN(c2ccccc2)c2cc(SC)c(O/C=C(\F)C(=O)O)cc2S(=O)(=O)C1 (mixture of isomers) [Example 19, (S)—(Z)-3-((3-ethyl-7-(methylthio)-1,1-dioxido-5-phenyl-3-propyl-2,3,4,5-tetrahydro-1,5-benzothiazepin-8-yl)oxy)-2-fluoroacrylic acid and (R)—(Z)-3-((3-ethyl-7-(methylthio)-1,1-dioxido-5-phenyl-3-propyl-2,3,4,5-tetrahydro-1,5-benzothiazepin-8-yl)oxy)-2-fluoroacrylic acid]	5	283		

Other lines, results leading:

IC50 (hLBAT) [nM]	IC50 (hIBAT) [nM]	Papp A→B at 120 min, 10 µM [1] [×10⁻⁶ cm/s]	Papp B→A at 120 min, 10 µM [1] [×10⁻⁶ cm/s]	Compound
12	156	3.8	4.1	CCCC1(CC)CN(c2ccccc2)c2cc(SC)c(O/C=C(\F)C(=O)O)cc2S(=O)(=O)C1 (stereo not drawn) [Example 12, (Z)-3-((3-ethyl-7-(methylthio)-1,1-dioxido-5-phenyl-3-propyl-2,3,4,5-tetrahydrobenzo-1,5-thiazepin-8-yl)oxy)-2-fluoroacrylic acid]
97	260			CCCC1(CC)CN(c2ccccc2)c2cc(SC)c(O/C=C/C(=O)O)cc2S(=O)(=O)C1 (stereo not drawn) [Example 11, (E)-3-((3-ethyl-7-(methylthio)-1,1-dioxido-5-phenyl-3-propyl-2,3,4,5-tetrahydro-1,5-benzothiazepin-8-yl)oxy)acrylic acid]
12	66			(S)—(Z)-3-((3-butyl-3-ethyl-5-(4-fluorophenyl)-7-(methylthio)-1,1-dioxido-2,3,4,5-tetrahydro-1,5-benzothiazepin-8-yl)oxy)-2-fluoroacrylic acid and (R)—(Z)-3-((3-butyl-3-ethyl-5-(4-fluorophenyl)-7-(methylthio)-1,1-dioxido-2,3,4,5-tetrahydro-1,5-benzothiazepin-8-yl)oxy)-2-fluoroacrylic acid [Example 6]
118	7			CCCCC1(CC)CN(c2ccc(F)cc2)c2cc(SC)c(O/C=C/C(=O)O)cc2S(=O)(=O)C1 (stereo not drawn) [Example 8, (E)-3-((3-butyl-3-ethyl-5-(4-fluorophenyl)-7-(methylthio)-1,1-dioxido-2,3,4,5-tetrahydro-1,5-benzothiazepin-8-yl)oxy)acrylic acid]
17	378			CCC1(C(C)C)CN(c2ccccc2)c2cc(SC)c(O/C=C(\F)C(=O)O)cc2S(=O)(=O)C1 (stereo not drawn) [Example 17, (Z)-3-((3-ethyl-3-isopropyl-7-(methylthio)-1,1-dioxido-5-phenyl-2,3,4,5-tetrahydro-1,5-benzothiazepin-8-yl)oxy)-2-fluoroacrylic acid]
77	91			(S)—(Z)-3-((3-butyl-7-(dimethylamino)-3-ethyl-1,1-dioxido-5-phenyl-2,3,4,5-tetrahydro-1,2,5-benzothiadiazepin-8-yl)oxy)-2-fluoroacrylic acid and (R)—(Z)-3-((3-butyl-7-(dimethylamino)-3-ethyl-1,1-dioxido-5-phenyl-2,3,4,5-tetrahydro-1,2,5-benzothiadiazepin-8-yl)oxy)-2-fluoroacrylic acid [Example 4]
218	565			CCC1(C(C)C)CN(c2ccccc2)c2cc(SC)c(O/C=C/C(=O)O)cc2S(=O)(=O)C1 (stereo not drawn) [Example 16, (E)-3-((3-ethyl-3-isopropyl-7-(methylthio)-1,1-dioxido-5-phenyl-2,3,4,5-tetrahydro-1,5-benzothiazepin-8-yl)oxy)acrylic acid]
